For series [1], the system named is acetylation of alpha-tubulin in NCI-H460 NSCLC cells. The experiment in a line: Western blot with densitometry, tubulin acetylation. Particulars: 5 µM; NCI-H460; vehicle 0,341. It is filed as cell-based, human. Here is the method: (§1) For assessing the in vitro effect of ST7612AA1 on acetylation of α-tubulin and histones, NSCLC cells were treated with the test compound at various concentrations (dose-response curve). SAHA 5 μM was used as reference inhibitor. Protein extraction, separation and immunoblotting were performed as previously described. Immunoreactive bands were finally subjected to densitometry analysis by a phosphoimaging system (STORM, Molecular Dynamics), and then the IC50 values were calculated by the “ALLFIT” computer program. The antibodies used are listed in Supplementary Table 2.
Background: In western blotting, separated proteins are transferred to a membrane and probed.

Series [2] concerns acetylation of histone H4 in NCI-H460 NSCLC cells. The experiment in a line: Western blot with densitometry, histone H4 acetylation. It is filed as cell-based, human. The settings on record: 5 µM; NCI-H460; vehicle 0,0274. As to the method:
as §1

A further series relates to HDAC3. More on the design: method as in PMID 25233084. Particulars: mean of IC50 on HDAC3 and 6; cited from earlier work.
Details of series [3]: method as in PMID 25233084. The settings on record: mean of IC50 on HDAC1, 10 and 11; cited from earlier work.
In a further series the test system is HDAC6. Details: method as in PMID 25233084. Particulars: cited from earlier work.
The nature of series [4]: PK sampling and analysis after a single oral dose of ST7612AA1 (plasma, LC-MS/MS). It is filed as in vivo, CD1 mice. Particulars: ST7464AA1 in plasma, single oral dose of 120 mg/kg of ST7612AA1. Here is the method: CD1 nude mice were used. Male mice were treated with a single dose of ST7612AA1 at 120 mg/10 mL/kg p.o., using 5% Solutol HS 15 in water for injection as vehicle. Blood samples were collected at 0.25, 0.5, 1, 2, 4 and 6 h post treatment from 5 animals per time point. Levels of ST7612AA1 and ST7464AA1 were determined in plasma by quantitative LC-MS/MS having a limit of quantification of 25 ng/mL. The PK parameters Cmax (maximum plasma concentration), Tmax (time of maximum plasma concentration), Clast (last quantifiable concentration), Tlast (time of last quantifiable plasma concentration), AUClast (area under the concentration vs time curve from 0 to Tlast), AUCINF (area under the concentration vs time curve from 0 to infinity), T1/2 (terminal half-life), CL/F (apparent systemic clearance) and Vz/F (apparent terminal volume of distribution) were derived from the analyte plasma concentration vs time data according to a model independent approach for sparse data sampling by using Phoenix WinNonlin® ver. 6.3 software (Pharsight, Cetara).

The next series deals with HDAC11. Details: method as in PMID 25233084. The settings on record: mean of IC50 on HDAC1, 10 and 11; cited from earlier work.
The subject of the next series is HDAC8. Details: method as in PMID 25233084. The settings on record: cited from earlier work.
For another series, the system named is HDAC2. Details: method as in PMID 25233084. Particulars: cited from earlier work.
The next series has as its system HDAC1. Details: method as in PMID 25233084. The settings on record: cited from earlier work.
Setting [5] is: male, CD1 nude, mouse, mean ± SEM.

Results on two molecules are retold here after paper PMC4467398, “Preclinical antitumor activity of ST7612AA1: a new oral thiol-based histone deacetylase (HDAC) inhibitor” (Oncotarget, 2014).

As usually defined, the IC50 is the midpoint of a concentration-inhibition curve. What is called AUC(0-inf) is the area under the concentration-time curve extrapolated to infinity. Read a low AUC(0-inf) as low exposure. The CL/F is the apparent clearance, not corrected for the fraction that reaches the circulation. As a reminder, the Tmax is the time at which the peak concentration occurs. By half-life is commonly meant the time needed for the level to fall by half in the phase considered. The low end stands for fast loss, the high end for slow loss. As usually defined, the AUC(0-t) is exposure summed from dosing to a finite time, without extrapolation to infinity. What is called Cmax is the maximum level reached in the sampled fluid or tissue.

“And” between values parts separate entries of the source, which are not always exact repeats. Equal values may be shown once. Read-outs that look alike come from different tables or passages of the source.

Regarding `O=C(CCCCCCC(=O)Nc1ccccc1)NO` [SAHA, suberoylanilide hydroxamic acid, reference compound], in [1], the Acetyl tub./tubulin is reported as 2,617. The “Acetyl H4/H4” value in series [2] was 0,1537.
Turning to `O=C1CC[C@H](C(=O)N[C@@H](CCCCCS)C(=O)Nc2ccccc2)N1` [ST7464AA1], the IC50 is 0.004 µM in the series on HDAC3; 0.013 µM in series [3]; 0.00318 µM in the series with HDAC6 (HDAC6); 0.004 µM with HDAC6 (mean of IC50 on HDAC3 and 6); 0.013 µM in the series with HDAC11; 0.281 µM in the series with HDAC8. The IC50 is 0.0777 µM and 0.078 µM with HDAC2; 0.0127 µM with HDAC1 (HDAC1); 0.013 µM in the series on HDAC1 (mean of IC50 on HDAC1, 10 and 11). In addition, the Tlast in [4] came out at 6.0 h. The molecule further returned an AUC(0-inf) in series [4] (male, CD1 nude, mouse) of 5.51 µg·h/mL. The CL/F in series [4] (male, CD1 nude, mouse) is 21.8 L/h/kg. Also, the Tmax in [4] (male, CD1 nude, mouse) came to 0.5 h. The same molecule gave a half-life in series [4] (male, CD1 nude, mouse) of 3.8 h. The molecule also registered an AUC(0-t) in series [4] (setting [5]) of 3.75 ± 0.299 µg·h/mL. The molecule also showed a Cmax in series [4] (setting [5]) of 1.58 ± 0.478 µg/mL. Also, in series [4] (male, CD1 nude, mouse, read-out: Clast), the concentration at 6 h amounted to 0.303 µg/mL. Also, the Vd/F in series [4] (male, CD1 nude, mouse, read-out: Vz/F) turned out to be 119 L/kg.
